Each structure is given as a SMILES string. Active and inactive are the calls of the source. How the calls were made is not given here.

The target of one experiment is Prostaglandin E2 receptor EP2 subtype (Homo sapiens) (UniProt P43116). The experiment is described as follows: compounds shifting PGE2 potency at EP2 – cell-based, human EP2, PGE2 EC50 shift, dose response (AID 1421). The following applies: EP2-expressing cells, PGE2 EC50 shift by compound.
Chain of Prostaglandin E2 receptor EP2 subtype (Homo sapiens) (P43116 whole entry, looked up): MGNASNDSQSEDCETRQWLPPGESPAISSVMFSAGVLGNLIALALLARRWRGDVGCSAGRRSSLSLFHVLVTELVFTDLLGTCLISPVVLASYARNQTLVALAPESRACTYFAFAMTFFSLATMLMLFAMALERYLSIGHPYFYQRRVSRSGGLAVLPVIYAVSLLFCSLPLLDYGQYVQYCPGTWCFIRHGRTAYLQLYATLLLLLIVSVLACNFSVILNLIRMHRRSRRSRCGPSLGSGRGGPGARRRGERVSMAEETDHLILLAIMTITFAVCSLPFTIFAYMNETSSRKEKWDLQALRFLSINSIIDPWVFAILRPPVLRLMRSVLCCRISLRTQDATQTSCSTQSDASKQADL
For `Cc1ccc(CSc2ncnc3c2cnn3Cc2ccccc2)cc1C`, the result was active.

On to `OC(Cc1ccccc1)(Cc1ccccc1)c1ccccc1`, for which the outcome was active. Consider `O=C(Nc1ccccc1N1CCCCC1)c1ccccc1F`, for which the outcome was active.

For the compound `CCCSc1ncnc2sc(C)c(C)c12`, the outcome was active.

As for `CCOC(=O)c1c(NC(=O)CN2CCCCC2)sc(C)c1C`, the outcome was active. `CC(C)C1COC(c2cccn2Cc2ccccc2Cl)=N1` (stereo unspecified): the outcome was active.

With `CSc1ncc2c(n1)-c1cc(C)ccc1SC2`, the result was active.

In the case of `CCOC(=O)C1CCN(c2c(-c3ccccc3)c3cc(Cl)ccc3[nH]c2=O)CC1`, the result was active. `CCOP(=O)(OCC)c1nc(-c2cccc3ccccc23)oc1NCc1ccc(OC)cc1`: the result was active.

The same experiment, now with this note: EP2-expressing cells, PGE2 EC50 shift by compound; measured here: PGE2 EC50 at 6.7 uM compound.
For `Cc1ccc2nc(N3CCC(C(=O)O)CC3)nc(-c3ccccc3)c2c1`, the PGE2 EC50 with compound was 1.19 nM. Same read-out and setting: to `CCCn1c(=O)[nH]c(=O)c2c1nc(-c1ccccc1OC(F)F)n2CCOC` belongs 1.08 nM; to `CC(=O)O[C@@H]1c2c(ccc3ccc(=O)oc23)OC(C)(C)[C@@H]1OC(=O)CC(C)C`, 0.92 nM. Same read-out and setting: then `Cc1ccc(CSc2ncnc3c2cnn3Cc2ccccc2)cc1C`, with 1.08 nM; and `CC1=Nc2ccccc2/C1=C/c1sc(=S)n(-c2cccc(C(=O)O)c2)c1O`, with 0.4 nM; and `COc1cccc2[nH]c3c(N4CCCC(C)C4)ncnc3c12` (stereo unspecified), with 23.2 nM. As for `Cc1ccc(C)n1-n1cnc2scc(-c3cccs3)c2c1=O`, the PGE2 EC50 with compound came to 0.97 nM. Still for that read-out and setting: then `Cc1ccc(NP(=O)(Oc2ccccc2F)Oc2ccccc2F)cc1C`, with 1.35 nM; and `Cc1ccc(C2CC(c3cccs3)=NN2C(=O)c2ccc(Br)o2)cc1` (stereo unspecified), with 0.75 nM. Regarding `CCCc1nc(SC2CCCC2)c2c(=O)n(C)c(=O)n(C)c2n1`, the PGE2 EC50 with compound was determined as 0.75 nM. As for `Cc1ccccc1-n1c(Cn2c(=O)sc3ccccc32)nnc1SCC(=O)N1CCCC1`, the PGE2 EC50 with compound came to 1.05 nM. Turning to `Cc1cccc(-c2nc(=S)c3c(n2Cc2ccco2)CCCC3)c1`, the PGE2 EC50 with compound worked out at 0.88 nM. Still for that read-out and setting: then `CCCCCCC/C=C\CCCCCCCCC(=O)O`, with 1.56 nM; and `O=C1CCCc2ccccc2N1Cc1cccc(Cl)c1`, with 2.62 nM; and `CCOc1ccccc1NC(=O)c1c(Br)cnn1C`, with 1.08 nM. As for `CCOc1ccc(OCC)c(NC(=O)CN2CCN(c3cc(C)ccc3C)CC2)c1`, the PGE2 EC50 with compound is 0.8 nM. For the compound `O=C1/C(=C/c2cccnc2)SC(=NCc2ccccc2)N1Cc1ccccc1`, the PGE2 EC50 with compound stood at 1.29 nM. Still for that read-out and setting: to `OC(Cc1ccccc1)(Cc1ccccc1)c1ccccc1` belongs 1.02 nM; to `Cc1cc(C(=O)NCC(c2ccco2)N(C)C)no1` (stereo unspecified), 2.55 nM. For the compound `O=C(O)c1ccc(-c2ccccc2Cl)o1`, the PGE2 EC50 with compound worked out at 1.44 nM. The same measure, in the same setting: then `O=C(Nc1ccccc1N1CCCCC1)c1ccccc1F`, with 0.61 nM. Still for that read-out and setting: to `COc1ccc(-c2noc(-c3ccccc3-c3ccccc3)n2)cc1OC` belongs 0.31 nM; to `CCOC(=O)c1c(C2COc3ccccc3O2)csc1N` (stereo unspecified), 1.39 nM; to `Cc1ccc(C(=O)C2=C(O)C(=O)N(CCCn3ccnc3)C2c2ccc(OC(C)C)cc2)o1` (stereo unspecified), 1.01 nM. On the same count and under the same terms, then `COc1ccc(C2=Nn3c(nnc3-c3ccc(OC)cc3)SC2)cc1`, with 1.28 nM; and `CCCSc1ncnc2sc(C)c(C)c12`, with 0.89 nM. As for `CCOC(=O)c1c(NC(=O)c2ccc(N3C(=O)[C@@H]4[C@H](C3=O)[C@H]3C=C[C@@H]4C3)cc2)sc2c1CC(C)CC2` (stereo partly specified), the PGE2 EC50 with compound was determined as 1.22 nM. Still for that read-out and setting: to `O=C(O)CCCCCCCCCCCc1ccccc1` belongs 0.88 nM; to `Cc1ccc2nc(SCC(=O)NCc3ccco3)c(C)cc2c1`, 0.76 nM; to `CCOC(=O)CC(=O)CSc1nc(-c2ccc3c(c2)OCO3)cc(C(F)(F)F)c1C#N`, 1.24 nM. Same read-out and setting: to `CCCOc1ccc(/C=N/Nc2ccc(C(=O)O)cc2)c(OCCC)c1` belongs 0.87 nM; to `C[C@H](CN(C)C)C(=O)c1ccccc1C(=O)O`, 1.41 nM; to `Cc1cccc(Oc2nc(-c3ccccc3)cc(C)c2S(C)(=O)=O)c1C`, 2.56 nM. On the same count and under the same terms, to `Clc1ccc(Cl)c(Nc2ccnc(SCc3ccccc3)n2)c1` belongs 0.64 nM; to `COc1ccc(OC)c(C(=O)c2coc3ccc(OCC(=O)O)cc23)c1`, 0.98 nM; to `Cn1nc(C(F)(F)F)c(/C=N/OC(=O)c2ccccc2)c1Sc1ccc(Cl)cc1`, 1.31 nM. Take `O=c1nc(-c2ccccc2)cc(-c2ccccc2)[nH]1`: the PGE2 EC50 with compound was 2.21 nM. Still for that read-out and setting: to `Cc1ccc(-n2c(SCC(=O)Nc3ccc4c(c3)OCO4)nnc2-c2ccoc2C)cc1` belongs 1.18 nM; to `COc1ccc2ccc(=O)oc2c1CC=C(C)C`, 1.13 nM.

For `Cc1cccc(C)c1OCc1nnc(SCC(=O)Nc2nccs2)n1-c1ccccc1`, the PGE2 EC50 with compound worked out at 1.01 nM.

As for `CCN(c1cccc(C)c1)S(=O)(=O)c1ccc2c3c(cccc13)C(=O)N2`, the PGE2 EC50 with compound worked out at 0.53 nM. On the same count and under the same terms, to `Cc1cccc(NCc2nc3ccccc3n2Cc2ccccc2)c1` belongs 1.13 nM. On the same count and under the same terms, to `COc1ccc(-n2c(COc3cccc4ccccc34)nnc2SCC#N)cc1` belongs 1.19 nM; to `O=C(O)CSc1ccc2ccccc2n1`, 2.79 nM; to `COc1ccc(C(=O)O)cc1NC(=S)NC(=O)c1ccc(-c2ccc(Cl)cc2)o1`, 0.36 nM.

Take `c1ccc(-c2cc(-c3ccncc3)nc3ccc4ccccc4c23)cc1`: the PGE2 EC50 with compound came to 0.69 nM. On the same count and under the same terms, then `CCC(C)(C(=O)NC1CCCCC1)N(C(=O)C1CCC(=O)N1)c1ccccc1` (stereo unspecified), with 1.17 nM.

As to `CC(C)c1ccc2c(c1)CCC1C(C)(C(N)=O)CCCC21C` (stereo unspecified), the PGE2 EC50 with compound was 0.9 nM. With `CC1Cc2ccccc2N1CC(=O)NC(c1ccccc1)c1ccccc1` (stereo unspecified), the PGE2 EC50 with compound is 1.48 nM. For the compound `CCOC(=O)c1c(NC(=O)CN2CCCCC2)sc(C)c1C`, the PGE2 EC50 with compound was determined as 0.89 nM. On to `CCC1Oc2ccc(C)cc2N(Cc2cccc(C)c2)C1=O` (stereo unspecified), for which the PGE2 EC50 with compound stood at 1.24 nM. With `CCCC/C(=N\NC(=O)c1ccc(Br)o1)c1ccccc1`, the PGE2 EC50 with compound was 2.49 nM. The same measure, in the same setting: to `C=CCn1c(SCc2c(C)noc2C)nc2ccccc2c1=O` belongs 1.49 nM; to `CC1(C)Cc2nc3sc4c(SCC(=O)NC(c5ccccc5)c5ccccc5)ncnc4c3cc2CO1`, 1.48 nM.

Turning to `CC1CCCN(C(=O)CSc2cnc3ccccc3n2)C1` (stereo unspecified), the PGE2 EC50 with compound was determined as 1.26 nM.

As to `Fc1cccc(CSc2ncnc3c2oc2ccccc23)c1`, the PGE2 EC50 with compound came to 2.7 nM. Same read-out and setting: to `O=c1cc2c(nn1Cc1c(Cl)cccc1Cl)-c1ccccc1CC2` belongs 0.79 nM; to `O=C(CSc1ncnc2c1oc1ccccc12)Nc1cccc(F)c1`, 3.15 nM. Same read-out and setting: then `O=C1CCCc2ccccc2N1Cc1c(Cl)cccc1Cl`, with 1.04 nM; and `COc1c(O)ccc(/C=C(\C#N)c2nc3ccccc3[nH]2)c1[N+](=O)[O-]`, with 1.1 nM. As to `Cc1ccccc1Cn1c(Cc2ccccc2)nc2ccccc21`, the PGE2 EC50 with compound came to 2.76 nM.

With `CC(C)C1COC(c2cccn2Cc2ccccc2Cl)=N1` (stereo unspecified), the PGE2 EC50 with compound stood at 0.95 nM. Same read-out and setting: then `Oc1ccc(/C=N/N2CCN(C3c4ccccc4-c4ccccc43)CC2)c(O)c1`, with 2.52 nM. Regarding `CSc1nc2ccccc2c(=O)n1Cc1ccc(F)cc1`, the PGE2 EC50 with compound was 0.87 nM. Same read-out and setting: then `O=C(Cc1ccc(Br)cc1)Nc1ccccc1Sc1ccccc1`, with 1.2 nM; and `CC1=C[N+](=O)c2ccccc2[N+]1=O`, with 0.94 nM. Still for that read-out and setting: then `O=S(=O)(c1cccc(C(F)(F)F)c1)N1c2ccccc2-n2cccc2[C@H]1c1cccnc1`, with 1.09 nM; and `CSc1ncc2c(n1)-c1cc(C)ccc1SC2`, with 0.93 nM. Same read-out and setting: then `COc1ccc(Nc2nc(-c3cc4cccc(OC)c4oc3=O)cs2)cc1`, with 1.29 nM; and `Cc1ccccc1S(=O)(=O)c1c(C)cc(C)n(C(C)C)c1=O`, with 0.83 nM. Regarding `O=C(O)NCc1ccccc1` (tested in a mixture with another compound), the PGE2 EC50 with compound is 1.38 nM. For the compound `C=CCOc1ccccc1CNc1ccccc1C`, the PGE2 EC50 with compound was determined as 1.42 nM. In the case of `COc1ccc(N(Cc2ccccc2)S(=O)(=O)c2ccc(C)cc2)cc1`, the PGE2 EC50 with compound amounted to 1.05 nM. With `CCn1c2ccccc2c2cc(Nc3cc(C)nc4ncnn34)ccc21`, the PGE2 EC50 with compound stood at 2.83 nM. As to `CCOP(=O)(c1ccccc1)c1nc(-c2ccccc2Cl)oc1N1CCCCC1` (stereo unspecified), the PGE2 EC50 with compound was determined as 1.02 nM. Same read-out and setting: to `CCOC(=O)c1cnn(-c2nc(-c3ccc(F)cc3)cs2)c1C(F)(F)F` belongs 1.04 nM. As for `CCOC(=O)C1CCN(c2c(-c3ccccc3)c3cc(Cl)ccc3[nH]c2=O)CC1`, the PGE2 EC50 with compound was 1.03 nM. On the same count and under the same terms, to `O=C(CC(Sc1ccccc1)c1cccs1)c1ccco1` (stereo unspecified) belongs 0.88 nM; to `c1ccc(-c2nn3c(C4CCCCC4)nnc3s2)cc1`, 1.07 nM. On the same count and under the same terms, to `CC1=C(C(=O)OCc2ccccc2)C(c2ccc(Cl)cc2Cl)NC(=O)N1CCCCCC(=O)O` (stereo unspecified) belongs 1.23 nM.

On to `CCCCOc1ccc(-c2c(C(=O)Nc3ccccc3)c(C)[nH]c(=S)c2C#N)cc1`, for which the PGE2 EC50 with compound is 2.8 nM. The same measure, in the same setting: then `O=C(c1ccc(Br)o1)N(Cc1ccccc1)Cc1ccccc1`, with 0.77 nM. Turning to `O=C(O)/C=C/c1ccccc1Oc1ccc(Cl)cc1Cl`, the PGE2 EC50 with compound is 1.21 nM. With `O=C(CSc1ncnc2c1oc1ccccc12)Nc1ccccc1C(F)(F)F`, the PGE2 EC50 with compound is 1.17 nM. Still for that read-out and setting: then `Cc1ccc(N=N/C(=C\O)C(=O)c2ccc(Cl)cc2)cc1`, with 0.87 nM; and `Cc1ccnc(NS(=O)(=O)c2cccs2)c1`, with 1.8 nM. Consider `CCOC(=O)c1c(NC(=O)CC(C)C)sc(C(C)=O)c1C`, for which the PGE2 EC50 with compound was 1.25 nM. With `CCOC(=O)c1sc2nccc(N(C)C)c2c1N=CNOCc1ccccc1`, the PGE2 EC50 with compound turned out to be 1.25 nM. Take `CCCCOc1ccccc1Cn1c(=O)oc2ccc(C)cc21`: the PGE2 EC50 with compound was 0.92 nM. On the same count and under the same terms, to `CCn1c(-c2ccccc2)c(C(=O)CCl)c2ccccc21` belongs 1 nM; to `CCOP(=O)(OCC)c1nc(-c2cccc3ccccc23)oc1NCc1ccc(OC)cc1`, 0.72 nM.

Take `CC[C@@H]1C(=O)OC[C@@H]1Cc1cncn1C`: the PGE2 EC50 with compound was found to be 1.8 nM.

The values above are taken from PubChem BioAssay AID1421 (Emory University Molecular Libraries Screening Center, 2008).
